These results are taken from patent US10273251B2, “Composition, cured film, near infrared ray absorption filter, solid-state imaging device, infrared sensor, and compound” (FUJIFILM Corporation, priority 2014, dated 2019).

Common to all, as to assay type: physicochemical
Series [1] is described as follows: Heat resistance of near infrared ray absorption filter (ΔEab before/after heating). The conditions noted are these: filter 1.0 μm, 7.5 mass % compound; 260° C. for 30 minutes on hot plate; ΔEab class. As for the experimental part: (§1) Compositions below were mixed so as to prepare the composition. A solid content of the composition is 31 mass % and a content of the near infrared ray absorption substance with respect to the total solid content of the composition was 7.5 mass %.
(§2) Glass substrates (1737 manufactured by Corning Incorporated) were coated with respective compositions by using a spin coater such that film thicknesses after drying become 1.0 μm, and a heating treatment (prebaking) was performed for 120 seconds by using a hot plate of 100° C.
(§3) Subsequently, beta exposure was performed by 500 mJ/cm^2 by using an i-ray stepper exposure device FPA-3000i5+ (manufactured by Canon Inc.). Subsequently, puddle development was performed at 23° C. for 60 seconds by using CD-2060 (manufactured by Fujifilm Electronic Materials), a rinse treatment was performed with pure water on a glass substrate on which a beta coloration layer was formed, and spray drying was performed.
(§4) The heating treatment (post baking) was performed for 300 seconds by using a hot plate of 200° C., so as to obtain a near infrared ray absorption filter.
After the near infrared ray absorption filter was heated to 260° C. for 30 minutes by a hot plate, the ΔEab value of a color difference before and after heat resistance test was measured using a color meter MCPD-1000 (manufactured by Otsuka Electronics Co., Ltd.), so as to evaluate a criterion below. A smaller ΔEab value indicates more satisfactory heat resistance.

Series [2] in a line: Light fastness of near infrared ray absorption filter (ΔEab before/after xenon lamp). The conditions noted are these: filter 1.0 μm, 7.5 mass % compound; xenon lamp 50,000 lux for 20 hours; ΔEab class. As for the experimental part: as §1, §2, §3, §4
After the near infrared ray absorption filter was irradiated with a xenon lamp was applied by 50,000 lux for 20 hours (corresponding to 1,000,000 lux·h), an ΔEab value of a color difference before and after a light-fast test was measured. A smaller ΔEab value indicates more satisfactory light fastness.
The ΔEab value is a value obtained from a color difference equation below according to a CIE 1976 (L*, a*, b*) space color system (Handbook of Color Science, New Edition, edited by the Color Science Association of Japan, (1985), p. 266). ΔEab={(ΔL*)^2[…](Δa*)^2+(Δb*)^2}^1/2

Series [3] can be described thus: Evaluation of maximum absorption wavelength, half-width and absorbance ratio (liquid absorption spectrum). The conditions noted are these: 2.5×10^−6 mol/L, optical path length 10 mm.
Series [4] in a line: Solubility of the compound to propylene glycol monomethyl ether acetate. The note with it: visually observed. An excerpt: Solubility of the compound to propylene glycol monomethyl ether acetate was visually observed.
The nature of series [5]: Evaluation of maximum absorption wavelength, half-width and absorbance ratio (liquid absorption spectrum). The note with it: 2.5×10^−6 mol/L, optical path length 10 mm. Here is the method: —Evaluation of Maximum Absorption Wavelength, Half-Width, and Absorbance Ratio—Respective compounds were dissolved in measuring solvents (concentration: 2.5×10^−6 mol/L) described in the table below so as to measure an absorption spectrum (Optical path length: 10 mm).
Maximum absorption wavelengths (λmax) of absorption spectrums, half-widths of the maximum absorption wavelengths, and absorbance ratios (550 nm/λmax) which are values obtained by dividing absorbance at a wavelength of […] by absorbance at the maximum absorption wavelength with respect to respective compounds are presented in Table 1 below. FIG. 3 illustrates an absorption spectrum of the compound D-1 in chloroform.
The source holds these as a separate data set.

[6] abbreviates: measuring solvent ethyl acetate.
The mark [7] stands for this setting: measuring solvent tetrahydrofuran.

Turning to `CCCCCCCCC(CCCCCC)COc1cccc(-c2c3/c(=C(\C#N)c4cnc5cc(Cl)c(Cl)cc5n4)n(B(c4ccccc4)c4ccccc4)c(-c4cccc(OCC(CCCCCC)CCCCCCCC)c4)c3/c(=C(\C#N)c3cnc4cc(Cl)c(Cl)cc4n3)n2B(c2ccccc2)c2ccccc2)c1` [Compound D-1], the Heat resistance in series [1] is listed as 5 (ΔEab value<3). In addition, the Light fastness in series [2] is recorded as 5 (ΔEab value<3). Further, the “Absorbance ratio (550 nm/λmax)” value in series [3] (measuring solvent chloroform) was found to be 0.011; in series [3] (setting [6]), 0.011; in series [3] (setting [7]), 0.01. Further, the Solubility entry in series [4] was “A (Solubility 2% or greater)”. Besides, the Half-width in series [5] (measuring solvent chloroform) is recorded as 29 nm; in series [5] (setting [6]) it was 30 nm; in series [5] (setting [7]) it was 29 nm. Moreover, the results for the Maximum absorption wavelength in series [5] (measuring solvent chloroform), in series [5] (setting [6]) and in series [5] (setting [7]) were 884 nm, 880 nm and 884 nm, respectively.
For the compound `COCCOCCOc1cccc(-c2c3/c(=C(\C#N)c4cnc5cc(Cl)c(Cl)cc5n4)n(B(c4ccccc4)c4ccccc4)c(-c4cccc(OCCOCCOC)c4)c3/c(=C(\C#N)c3cnc4cc(Cl)c(Cl)cc4n3)n2B(c2ccccc2)c2ccccc2)c1` [Compound D-4], the Heat resistance in series [1] is listed as 4 (3≤ΔEab value<5). The Light fastness in series [2] is recorded as 5 (ΔEab value<3). Further, the “Absorbance ratio (550 nm/λmax)” value in series [3] (measuring solvent chloroform) came out at 0.012. Further, the Solubility result in series [4] was “B (Solubility 0.5% or greater and less than 2%)”. In series [5] (measuring solvent chloroform), the Half-width was 29 nm and the Maximum absorption wavelength is 883 nm.
On to `CCCCCCCC/C=C\CCCCCCCCOc1cccc(-c2c3/c(=C(\C#N)c4cnc5cc(Cl)c(Cl)cc5n4)n(B(c4ccccc4)c4ccccc4)c(-c4cccc(OCCCCCCCC/C=C\CCCCCCCC)c4)c3/c(=C(\C#N)c3cnc4cc(Cl)c(Cl)cc4n3)n2B(c2ccccc2)c2ccccc2)c1` [Compound D-5], for which the Heat resistance in series [1] was 5 (ΔEab value<3). For the same compound, the Light fastness in series [2] is 5 (ΔEab value<3). The “Absorbance ratio (550 nm/λmax)” value in series [3] (measuring solvent chloroform) was determined as 0.01. In addition, the Solubility result in series [4] is “B (Solubility 0.5% or greater and less than 2%)”. Also, in series [5] (measuring solvent chloroform), the Half-width was found to be 29 nm and the Maximum absorption wavelength came to 884 nm.
In the case of `Cc1cc2ncc(/C(C#N)=c3/c4c(-c5cccc(OCC(CCC(C)CC(C)(C)C)C(C)CC(C)(C)C)c5)n(B(c5ccccc5)c5ccccc5)/c(=C(/C#N)c5cnc6cc(C)c(C)cc6n5)c4c(-c4cccc(OCC(CCC(C)CC(C)(C)C)C(C)CC(C)(C)C)c4)n3B(c3ccccc3)c3ccccc3)nc2cc1C` [Compound D-6], the Heat resistance in series [1] is 5 (ΔEab value<3). The Light fastness in series [2] is given as 5 (ΔEab value<3). Besides, the “Absorbance ratio (550 nm/λmax)” value in series [3] (measuring solvent chloroform) was found to be 0.01. The Solubility entry in series [4] is “A (Solubility 2% or greater)”. In series [5] (measuring solvent chloroform), the Half-width stood at 32 nm and the Maximum absorption wavelength is 872 nm.
As for `CCC(C)COc1cccc(-c2c3/c(=C(\C#N)c4cnc5ccccc5n4)n(B(c4ccccc4)c4ccccc4)c(-c4cccc(OCC(C)CC)c4)c3/c(=C(\C#N)c3cnc4ccccc4n3)n2B(c2ccccc2)c2ccccc2)c1` [Compound D-7], the Heat resistance in series [1] is on record as 5 (ΔEab value<3). In series [2], the Light fastness was 5 (ΔEab value<3). Besides, in series [3] (measuring solvent chloroform), the “Absorbance ratio (550 nm/λmax)” value turned out to be 0.013. Also, in series [4], the Solubility entry is recorded as “A (Solubility 2% or greater)”. Further, in series [5] (measuring solvent chloroform), the Half-width was determined as 29 nm and the Maximum absorption wavelength turned out to be 863 nm.
As for `CCCCCCCCC(CCCCCCCC)COc1cccc(-c2c3/c(=C(\C#N)c4cnc5cc(C)ccc5n4)n(B(c4ccccc4)c4ccccc4)c(-c4cccc(OCC(CCCCCCCC)CCCCCCCC)c4)c3/c(=C(\C#N)c3cnc4cc(C)ccc4n3)n2B(c2ccccc2)c2ccccc2)c1` [Compound D-8], the Heat resistance in series [1] is on record as 5 (ΔEab value<3). The Light fastness in series [2] is on record as 5 (ΔEab value<3). Besides, the “Absorbance ratio (550 nm/λmax)” value in series [3] (measuring solvent chloroform) is given as 0.01. For the same compound, in series [4], the Solubility entry is “A (Solubility 2% or greater)”. In addition, in series [5] (measuring solvent chloroform), the Half-width is 31 nm and the Maximum absorption wavelength is listed as 866 nm.
In the case of `CCCCC(CC)COc1cccc(-c2c3/c(=C(\C#N)c4ccc5ccccc5n4)n(B(c4ccccc4)c4ccccc4)c(-c4cccc(OCC(CC)CCCC)c4)c3/c(=C(\C#N)c3ccc4ccccc4n3)n2B(c2ccccc2)c2ccccc2)c1` [Compound D-10], the Heat resistance in series [1] is 5 (ΔEab value<3). Moreover, the Light fastness in series [2] is 5 (ΔEab value<3). Further, the “Absorbance ratio (550 nm/λmax)” value in series [3] (measuring solvent chloroform) is reported as 0.01. Moreover, in series [4], the Solubility entry is reported as “A (Solubility 2% or greater)”. In addition, in series [5] (measuring solvent chloroform), the Half-width turned out to be 30 nm and the Maximum absorption wavelength is given as 814 nm.
For `CCCCCCCCCCCCCCCCCCOc1cccc(-c2c3/c(=C(\C#N)c4nc5ccccc5s4)n(B(c4ccccc4)c4ccccc4)c(-c4cccc(OCCCCCCCCCCCCCCCCCC)c4)c3/c(=C(\C#N)c3nc4ccccc4s3)n2B(c2ccccc2)c2ccccc2)c1` [Compound D-11], in series [1], the Heat resistance is recorded as 5 (ΔEab value<3). Also, the Light fastness in series [2] was 5 (ΔEab value<3). Further, in series [3] (measuring solvent chloroform), the “Absorbance ratio (550 nm/λmax)” value worked out at 0.009. In addition, in series [4], the Solubility result is “B (Solubility 0.5% or greater and less than 2%)”. In addition, in series [5] (measuring solvent chloroform), the Half-width amounted to 30 nm and the Maximum absorption wavelength was 779 nm.
On to `CC(CCC(COc1cccc(-c2c3/c(=C(\C#N)c4cnc5ccccc5n4)n(B(c4ccccc4)c4ccccc4)c(-c4cccc(OCC(CCC(C)CC(C)(C)C)C(C)CC(C)(C)C)c4)c3/c(=C(\C#N)c3cnc4ccccc4n3)n2B(c2ccccc2)c2ccccc2)c1)C(C)CC(C)(C)C)CC(C)(C)C` [Compound D-28], for which, in series [1], the Heat resistance was 5 (ΔEab value<3). Further, in series [2], the Light fastness was 5 (ΔEab value<3). Also, the “Absorbance ratio (550 nm/λmax)” value in series [3] (measuring solvent chloroform) was 0.006. In addition, the Solubility result in series [4] is recorded as “A (Solubility 2% or greater)”. In series [5] (measuring solvent chloroform), the Half-width stood at 29 nm and the Maximum absorption wavelength stood at 863 nm.
Regarding `CCCCCCCCCCC(CCCCCCCC)COc1cccc(-c2c3/c(=C(\C#N)c4cnc5ccccc5n4)n(B(c4ccccc4)c4ccccc4)c(-c4cccc(OCC(CCCCCCCC)CCCCCCCCCC)c4)c3/c(=C(\C#N)c3cnc4ccccc4n3)n2B(c2ccccc2)c2ccccc2)c1` [Compound D-29], the Heat resistance in series [1] is 5 (ΔEab value<3). Further, the Light fastness in series [2] is given as 5 (ΔEab value<3). Further, the “Absorbance ratio (550 nm/λmax)” value in series [3] (measuring solvent chloroform) is listed as 0.006. The Solubility entry in series [4] was “A (Solubility 2% or greater)”. For the same compound, in series [5] (measuring solvent chloroform), the Half-width is recorded as 28 nm and the Maximum absorption wavelength is listed as 862 nm.
With `CCCCCCCCCCC(CCCCCCCC)COc1cccc(-c2c3/c(=C(\C#N)c4cnc5cc(Cl)c(Cl)cc5n4)n(B(c4ccccc4)c4ccccc4)c(-c4cccc(OCC(CCCCCCCC)CCCCCCCCCC)c4)c3/c(=C(\C#N)c3cnc4cc(Cl)c(Cl)cc4n3)n2B(c2ccccc2)c2ccccc2)c1` [Compound D-31], the Heat resistance in series [1] is recorded as 5 (ΔEab value<3). The Light fastness in series [2] is 5 (ΔEab value<3). For the same compound, the “Absorbance ratio (550 nm/λmax)” value in series [3] (measuring solvent chloroform) is 0.01. Also, the Solubility entry in series [4] is reported as “A (Solubility 2% or greater)”. Further, in series [5] (measuring solvent chloroform), the Half-width is reported as 28 nm and the Maximum absorption wavelength is on record as 884 nm.
